# Experiments:
# Format in all cases: cell-based
# [1] = test system: THP-1 human peripheral blood monocyte cells; assay: eGFP mRNA transfection, THP-1 cells (96-well); settings: ratio 1/2, 150 ng eGFP mRNA, 24 h
# Description: THP-1 (ATCC® TIB-202™) human peripheral blood monocyte cells were grown in RPMI-1640 with 10% FBS and supplemented with 10 mM HEPES buffer, 1 mM sodium pyruvate, 0.05 mM 2-mercaptoethanol, 2 mM glutamine, 100 U/mL of penicillin and 100 μg/mL of streptomycin at 37° C. in a 5% CO2 in air atmosphere.
# (§1) mRNA eGFP (996 nt, reference L-6101) from TriLink Technologies was used for the in vitro transfection experiments and expressed enhanced green fluorescent protein which is a common reporter gene (eGFP). This mRNA was capped with a Cap 0, polyadenylated and modified with 5-methylcytidine and pseudo-uridine.
# (§2) One day before transfection, Caco-2, THP-1 or BJ Cells were seeded at 10 000, 25 000, or 5 000 cells per well (96-well plate format), respectively, in 125 μL of their respective complete medium and incubated at 37° C. in a 5% CO2 in air atmosphere. For Jurkat cells, 25 000 cells were seeded per well prior transfection. On the day of transfection 150 ng of mRNA was added in 11.5 μL of 5% glucose solution, mixed with a vortex and incubated for 5 minutes at rt. Then, 1 μL of 1 mM cationic liposomal formulation was added onto the diluted mRNA, mixed with a vortex and incubated for 15 minutes at rt. The formulated mRNA solution (12.5 μL) was added into the well and the plate was incubated for 24 hours at 37° C. in a 5% CO2 in air atmosphere.
# (§3) For the GFP expression analysis, the cell culture medium was removed for the adherent cells and 50 μL of trypsin-EDTA (1×, Lonza) was added and the plate was incubated for 5 minutes at 37° C. 150 μL of complete medium were added to neutralize the trypsin, and the GFP expression was analysed (2000 events) by flow cytometry (Exc 488 nm, Em 520 nm) using a Guava easyCyte 6HT cytometer (Millipore).
# (§4) All these new liposomal formulations (Table 1) were assessed to deliver mRNA expressing an enhanced green fluorescent protein (eGFP) as reporter gene in order to determine the gene expression and the transfection efficiency (Table 2). mRNA eGFP capped with a Cap 0 in 5′-end, polyadenylated in 3′-end and modified with 5-methylcytidine and pseudo-uridine was used in the transfection assay. The transfection assay was performed as described in the Experimental section where 150 ng of mRNA eGFP was complexed with 1 μL of 1 mM cationic liposomal formulations in a 5% glucose solution before the addition on the cells. One day post-transfection, the eGFP expression was analyzed by flow cytometry to determine the percentage of transfection. Four different cell lines were used in this assay from easy to transfect cells to hard to transfect cells with plasmid DNA, including human BJ skin fibroblast cells, THP-1 human peripheral blood monocytes, Caco-2 human colon epithelial cells and Jurkat Clone E6-1 human T lymphoblast cells, respectively.
# [2] = test system: Caco-2 human colon epithelial cells; assay: eGFP mRNA transfection, Caco-2 cells (96-well); settings: for Transfection efficiency (eGFP %) CaCO2: ratio 1/2, 150 ng eGFP mRNA, 24 h
# Description: Caco-2 (ATCC® HTB-37™) human colon epithelial cells were grown in DMEM 4.5 g/L glucose with 20% FBS supplemented with 1% non-essential amino acids, 1 mM sodium pyruvate, 2 mM glutamine and 100 U/mL of penicillin and 100 μg/mL of streptomycin at 37° C. in a 5% CO2 in air atmosphere.
# as §1, §2, §3, §4
# [3] = test system: BJ human skin fibroblast cells; assay: eGFP mRNA transfection, BJ cells (96-well); settings: co-lipid DOPE, ratio 1/2; 150 ng eGFP mRNA; 24 h
# Description: BJ (ATCC® CRL-2522™) human skin fibroblast cells were grown in Eagle's Minimum Essential Medium with 10% FBS and supplemented with 1% non-essential amino acids, 1 mM sodium pyruvate, 2 mM glutamine and 100 U/mL of penicillin and 100 μg/mL of streptomycin at 37° C. in a 5% CO2 in air atmosphere.
# as §1, §2, §3, §4
# [4] = test system: Jurkat Clone E6-1 human T lymphoblast cells; assay: eGFP mRNA transfection, Jurkat cells (96-well); settings: 150 ng eGFP mRNA, 24 h
# Description: Jurkat Clone E6-1 (ATCC® TIB-152™) human T lymphoblast cells were grown in RPMI-1640 (LONZA) with 10% of FBS (EUROBIO) and supplemented with 2 mM Glutamine (LONZA), 100 U/mL of penicillin and 100 μg/mL of streptomycin (LONZA) at 37° C. in a 5% CO2 in air atmosphere.
# as §1, §2, §3, §4
# [5] = co-lipid DOPE, ratio compound/co-lipid 1/2, 1 μL of 1 mM formulation, flow cytometry
Transfection efficiency (eGFP %) CaCO2 ([2]; co-lipid DOPE),Transfection efficiency (eGFP %) CaCO2 ([2]; co-lipid DPyPE),SMILES,Transfection efficiency (eGFP %) THP-1 ([1]; co-lipid DOPE),Transfection efficiency (eGFP %) BJ [3],"Transfection efficiency (eGFP %) Jurkat [4, 5]","GFP expression one day post-transfection, comparison of co-lipids ([2]; CaCo2 cells, co-lipid DPyPE versus DOPE, PaLiPE, DiLiPE, molar ratio 1:2 (FIG. 3))",Transfection efficiency (eGFP %) THP-1 ([1]; co-lipid DPyPE),"Transfection efficiency (eGFP %) Jurkat ([4]; co-lipid DPyPE, ratio 1/2)","Transfection efficiency (eGFP %) Jurkat ([4]; co-lipid DPyPE, ratio 1/1.5)"
15-25%,,"CCCCCCCC/C=C\CCCCCCCCC(CCCCCCCC/C=C\CCCCCCCC)[n+]1ccn(C)c1.[Cl-] [Compound W1.4, 1-methyl-3-(heptatriaconta-9,28-dien-19-yl)-1-methyl-1H-imidazol-3-ium chloride]",80-85%,80-95%,10-15%,,,,
5-10%,,CCCCCCC/C=C\CCCCCCCCC(CCCCCCCCCCCCCC)[n+]1ccn(C)c1 (stereo not drawn) [Compound W2.5],70-75%,70-85%,1-5%,,,,
35-40%,,"CCCCCCC/C=C\CCCCCCCCC(CCCCCCCCCCCCCCCCCC)[n+]1ccn(C)c1.[Cl-] (stereo not drawn) [Compound W3.5, 1-methyl-3-(hexatriacont-8-en-18-yl)-1H-imidazol-3-ium chloride]",35-45%,80-95%,10-15%,,,,
5-10%,,"CCCCCCCCCCCCCCCCCCC(CCCCCCCCCC)[n+]1ccn(C)c1.[Cl-] (stereo not drawn) [Compound W6.3, 1-methyl-3-(nonacosan-11-yl)-1H-imidazol-3-ium chloride]",30-40%,80-85%,20-25%,,,,
5-15%,,"CCCCCCCCCCCCCCCCCCC(CCCCCCCCCCCCCCCCC)C[n+]1ccn(C)c1.[Cl-] (stereo not drawn) [Compound W7.4, 1-methyl-3-(2-heptadecylicosyl)-1H-imidazol-3-ium chloride]",40-50%,65-75%,5-15%,,,,
,,"CCCCCCC/C=C\CCCCCCCCC(CCCCCCCC/C=C\CCCCCCCC)[n+]1ccn(C)c1.[Cl-] (stereo not drawn) [Compound W8.7, 1-methyl-3-(hexatriaconta-8,27-dien-18-yl)-1H-imidazol-3-ium]",70-80%,80-85%,10-15%,,,,
40-50%,,"CCCCCCCCCCCCCCC(CCCCCCCCCCCCCC)CCCCC(CCCCCCCCCCCCCC)[n+]1ccn(C)c1.[Cl-] (stereo not drawn) [Compound W9.7, 1-methyl-3-(20-tetradecyltetratriacontan-15-yl)-1H-imidazol-3-ium chloride]",70-80%,90-95%,10-15%,optimal,,,
65-75%,,"CCCCCCCC/C=C\CCCCCCCCC(CCCCC(CCCCCCCCCCCCCC)CCCCCCCCCCCCCC)[n+]1ccn(C)c1.[Cl-] (stereo not drawn) [Compound W10.7, 1-methyl-3-(24-tetradecyloctatriacont-9-en-19-yl)-1H-imidazol-3-ium chloride]",70-80%,90-95%,25-30%,,,,
35-45%,,"CCCCCCCCCCCCCCCCCCC(CCCCC(CCCCCCCCCCCCCC)CCCCCCCCCCCCCC)[n+]1ccn(C)c1.[Cl-] (stereo not drawn) [Compound W11.7, 1-methyl-3-(24-tetradecyloctatriacontan-19-yl)-1H-imidazol-3-ium chloride]",80-90%,90-95%,15-25%,,,,
,,"CCCCCCCCCCCCCCCCCCC(CCCCCCCCCCCCCCCCCC)CCCCC(CC1CCCCC1)[n+]1ccn(C)c1.[Cl-] (stereo not drawn) [Compound W14.7, 1-methyl-3-(1-cyclohexyl-7-octadecylpentacosan-2-yl)-1H-imidazol-3-ium chloride]",55-65%,,25-35%,,,,
,,"CCCCCCCCCCCCCCCCCCC(CCCCCCCCCCCCCCCCCC)CCCCC(Cc1ccccc1)[n+]1ccn(C)c1.[Cl-] (stereo not drawn) [Compound W15.7, 1-methyl-3-(7-octadecyl-1-phenylpentacosan-2-yl)-1H-imidazol-3-ium chloride]",55-70%,,25-30%,,,,
15-20%,,"CCCCCCCCCCCCCCCCCCC(CCCCCCCCCCCCCCCCCC)CCCCC(CCC(C)CCCC(C)C)[n+]1ccn(C)c1.[Cl-] (stereo not drawn) [Compound W16.7, 1-methyl-3-(2,6-dimethyl-14-octadecyldotriacontan-9-yl)-1H-imidazole-3-ium chloride]",75-80%,,35-40%,,,,
,,"CCCCCCCCCCCCCCCCCCC(CCCCCCCCCCCCCCCCCC)CCCCC(CCCCCC)[n+]1ccn(C)c1.[Cl-] (stereo not drawn) [Compound W17.7, 1-methyl-3-(12-octadecyltriacontan-7-yl)-1H-imidazol-3-ium chloride]",70-75%,,30-35%,,,,
,,"CCCCCCCCCCCCCCC(CCCCCCCCCCCCCC)CCCCC(CCCCC(CCCCCCCCCCCCCC)CCCCCCCCCCCCCC)[n+]1ccn(C)c1.[Cl-] [Compound W18.9, 1-methyl-3-(15,25-ditetradecylnonatriacontan-20-yl)-1H-imidazol-3-ium chloride]",80-85%,,25-30%,,,,
,,"CCCCCCCCCCCCCCCCCCNC(CCCCCCCCCC)CCCC(CCCCCCCCCC)n1cc[n+](C)c1.Cl.[Cl-] (stereo not drawn) [Compound W19.7, 1-methyl-3-(15-(octadecylammonio)pentacosan-11-yl)-1H-imidazol-3-ium chloride]",40-50%,,40-50%,,,,
50-60%,60-70%,"CCCCCCCCCCCCCCCCCCC(CCCCCCCCCCCCCCCCCC)CCCCC(CCC(C)CCCC(C)C)[n+]1ccn(CCCC)c1.[Cl-] (stereo not drawn) [Compound W21.7, 1-butyl-3-(2,6-dimethyl-14-octadecyldotriacontan-9-yl)-1H-imidazol-3-ium chloride]",70-80%,,40-50%,,70-80%,55-65%,
,,"CCCCCCCCCCCCCCC(CCCCCCCCCCCCCC)CCCCC(CCC(C)CCCC(C)C)[n+]1ccn(CCCC)c1.[Cl-] (stereo not drawn) [Compound W22.7, 1-butyl-3-(2,6-dimethyl-14-tetradecyloctacosan-9-yl)-1H-imidazol-3-ium chloride]",70-80%,,50-60%,,80-85%,40-55%,
,,"CCCCn1cc[n+](C(CCCCC(CCC(C)CCCC(C)C)CCC(C)CCCC(C)C)CCC(C)CCCC(C)C)c1.[Cl-] (stereo not drawn) [Compound W23.7, 1-butyl-3-(14-(3,7-dimethyloctyl)-2,6,17,21-tetramethyldocosan-9-yl)-1H-imidazol-3-ium chloride]",,,,,,,25-30%
